# In patent US20230263759A1, “PARENTERAL NUTRITION FORMULATION” (BAXTER INTERNATIONAL INC., priority 2020, published 2023):
# Key:
# [1] = tested on: cytokines Il-1β, Il-6, TNF-α, Il-8, Il-10; assay: Cytokine quantification in jejunal and ileal samples; format: in vivo, pig; details: compared to standard PN (s-PN)
# Experimental: Digestive Diseases and Sciences 2002; 47:2049-2055. Jejunal and ileal samples were homogenized in double-distilled water, and the Bradford protein assay (Biorad, Hercules, Calif., USA) was performed on homogenate and plasma samples. Protein (30 μg) from each sample was denatured by boiling, and proteins were separated by size using 12.5% sodium dodecyl sulfate polyacrylamide gel electrophoresis. Separated proteins were transferred to polyvinylidene difluoride membranes (Biorad) using a semidry transfer apparatus (Biorad). Western blot analysis for TNF-alpha, IL-1beta, Il-10 and IL-6 was performed using porcine-specific polyclonal antibodies (Endogen, Woburn, Mass., USA). A mouse anti-pig monoclonal TNF-alpha antibody was used to detect TNF-alpha ([…]) Rabbit anti-pig polyclonal antibodies specific for IL-1beta and IL-6 were used to detect IL-1beta ([…]), Il-10 ([…]) and IL-6 ([…]). Membranes were developed using the Opti-4CN kit (Biorad) and photographed using the FOTO/Analyst Image Analysis System (Fotodyne, Inc., Hart-land, Wisconsin, USA). Densitometry of TNF-alpha, IL-1beta, IL-6, and Il-10 was performed using Collage Image Analysis Software 4.0 (Fotodyne, Inc.). Results are shown in FIG. 15 (Il-6), FIG. 16 (Ill-beta), FIG. 17 (TNF-alpha) and FIG. 18 (Il-10).
# [2] = Stability of butyrate derivatives in PN compositions (sterilization, storage; GC-FID); format: physicochemical; details: for free butyric acid released in the lipid chamber during sterilization: after compounding and sterilization of the bags
# Experimental: The concentration of arginine butyrate can be varied relatively broadly over the disclosed range.
# Compositions used are described in Table 4 and Table 5. After compounding of the respective butyrate derivatives into the respective chambers of the bags and following sterilization, free butyric acid was measured in the lipid chamber (for tributyrin and DPBG compositions) and the butyrate content in the amino acid chamber was determined. […] In case of the amino acid chamber, the recovery of butyrate after sterilization corresponds to what was introduced. Accordingly, no deterioration of the salt occurred during or after sterilization. In addition, the stability of the composition over time (12 months, 25° C., 40% RH) was confirmed. The free butyric acid can be quantified by GC-FID, after sample preparation by liquid-liquid extraction of the lipid emulsion or directly from amino acid solution. These methods are known in the art.
# sIgA = assay: IgA quantification (sandwich ELISA of intestinal washings); format: in vivo, pig; details: 10 mmol/L; compared to standard PN (s-PN)
# Experimental: Small intestine probes for IgA level determination were obtained by flushing the small intestine with chilled HBSS (Hank's Balanced Salt Solution). Nasal and bronchoalveolar washings for measurement of respiratory tract IgA levels were obtained by lavage with 1 mL phosphate-buffered saline solution under anesthesia. The washings were stored in a −80° C. freezer until IgA analysis. IgA was measured in small intestinal and respiratory tract washings by sandwich enzyme-linked immunosorbent assay using a polyclonal goat anti-mouse IgA (Sigma) to coat the plate, a purified mouse IgA (Zymed Laboratories, San Francisco, Calif.) as the standard, and a horseradish peroxidase-conjugated goat anti-mouse IgA (Sigma) Results are shown in FIG. 13.
# [3] = tested on: metastatic colorectal cancer patients; details: aqueous solution, pH 7.7; phase I clinical trial; cited from earlier work
molecule,measurement,setting,value
CCCC(=O)OCC(COC(=O)CCC)OC(=O)CCC [Tributyrin],"Ileal Cytokine Concentration (less pro-inflammatory cytokines Il-1β, Il-6, TNF-α)",[1]; 10 mmol/L,++ (++ indicates P < 0.05)
same,"Ileal Cytokine Concentration (more anti-inflammatory cytokines Il-8, Il-10)",[1]; 10 mmol/L,+
same,"Jejunal Cytokine Concentration (less pro-inflammatory cytokines Il-1β, Il-6, TNF-α)",[1]; 10 mmol/L,+++ (+++ indicate P < 0.01)
same,"Ileal Cytokine Concentration (less pro-inflammatory cytokines Il-1β, Il-6, TNF-α)",[1]; 30 mmol/L,++ (++ indicates P < 0.05)
same,"Jejunal Cytokine Concentration (less pro-inflammatory cytokines Il-1β, Il-6, TNF-α)",[1]; 30 mmol/L,+++ (+++ indicate P < 0.01)
same,"Jejunal Cytokine Concentration (more anti-inflammatory cytokines Il-8, Il-10)",[1]; 30 mmol/L,+
same,free butyric acid released in the lipid chamber during sterilization,[2],only very limited amounts
"L-arginine, butanoate (3:4) [Arginine Butyrate]","Ileal Cytokine Concentration (less pro-inflammatory cytokines Il-1β, Il-6, TNF-α)",[1]; 10 mmol/L,+++ (+++ indicate P < 0.01)
same,"Ileal Cytokine Concentration (more anti-inflammatory cytokines Il-8, Il-10)",[1]; 10 mmol/L,+^4
same,"Jejunal Cytokine Concentration (less pro-inflammatory cytokines Il-1β, Il-6, TNF-α)",[1]; 10 mmol/L,+++ (+++ indicate P < 0.01)
same,"Jejunal Cytokine Concentration (more anti-inflammatory cytokines Il-8, Il-10)",[1]; 10 mmol/L,++ (++ indicates P < 0.05)
same,Jejunal sIgA Concentration,sIgA,+++^3 (+++ indicate P < 0.01)
same,shelf-life over which stable in the amino acid formulation,"[2]; 25° C. and 40% relative humidity (RH), also stable during production, sterilization",at least 12 months
same,tolerated dose,[3],3 g/kg/day
"CCCCCCCCCCCCCCCC(=O)OCC(COC(=O)CCC)OC(=O)CCCCCCCCCCCCCCC (stereo not drawn) [DPBG, 1,2-Dipalmitoyl 3-butyryl glycerol]",free butyric acid released in the lipid chamber during sterilization,[2],only very limited amounts
